Molecules are shown by their SMILES.

The target in this assay is Substance-P receptor (Bos taurus). Briefly: Binding affinity was measured against the Tachykinin receptor 1 in bovine retina using [3H]SP.

`Cc1cc(C)cc(C(=O)N2CC[C@H](NCCc3ccccc3)C[C@H]2Cc2ccccc2)c1` [CGP-47899] yielded an IC50 of 0.0151 µM. `Cc1cc(C)cc(C(=O)N[C@H]2CCN(C(=O)c3cc(Cl)cc(Cl)c3)[C@H](Cc3ccccc3)C2)c1` had an IC50 of 0.0257 µM.

The values are drawn from BindingDB's records for doi:10.1021/jm9700171 (Washington University, 1998).
